In ChEMBL document CHEMBL1156278, “Novel benzothiophene H1-antihistamines for the treatment of insomnia” (Bioorg Med Chem Lett, 2010):
pIC50, pKi: −log10 of the molar value. The source made the active and inactive calls. The calls are words filed in the database; no cut-off is given here.

Key:
[1] = biological target: T1, Muscarinic acetylcholine receptor M1 (Homo sapiens, UniProt P11229); test: Displacement of [3H]N-methylscopolamine from human muscarinic M1 receptor expressed in CHO Flp-In cells after 90 mins by scintillation counting; assay type: cell-based; details: read-out: Ki
T1 sequence (P11229 whole entry): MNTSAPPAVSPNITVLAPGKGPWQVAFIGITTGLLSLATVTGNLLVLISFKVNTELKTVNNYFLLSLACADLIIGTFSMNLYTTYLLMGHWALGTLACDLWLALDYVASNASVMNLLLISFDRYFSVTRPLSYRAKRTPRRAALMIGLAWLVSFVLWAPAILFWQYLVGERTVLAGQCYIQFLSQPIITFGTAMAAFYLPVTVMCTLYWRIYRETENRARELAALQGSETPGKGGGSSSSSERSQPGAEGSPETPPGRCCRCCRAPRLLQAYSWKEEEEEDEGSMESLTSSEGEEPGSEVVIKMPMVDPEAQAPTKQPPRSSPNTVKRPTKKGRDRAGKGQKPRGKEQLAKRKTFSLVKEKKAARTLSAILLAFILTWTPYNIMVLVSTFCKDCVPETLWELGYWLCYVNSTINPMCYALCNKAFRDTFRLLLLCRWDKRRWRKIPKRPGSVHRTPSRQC

Cytochrome P450 3A4 = Cytochrome P450 3A4 (Homo sapiens, UniProt P08684); test: Inhibition of recombinant CYP3A4 after 30 mins by fluorescence assay
[2] = biological target: T2, Voltage-gated inwardly rectifying potassium channel KCNH2 (Homo sapiens, UniProt Q12809); test: Displacement of [3H]Dofetilide from human ERG
Histamine H1 receptor = Histamine H1 receptor (Homo sapiens, UniProt P35367); test: Displacement of [3H]pyrilamine from human histamine H1 receptor expressed in CHO Flp-In cells after 90 mins by scintillation counting; assay type: cell-based
Cytochrome P450 2D6 = Cytochrome P450 2D6 (Homo sapiens, UniProt P10635); test: Inhibition of recombinant CYP2D6 after 30 mins by fluorescence assay
[3] = biological target: T2, Voltage-gated inwardly rectifying potassium channel KCNH2; test: Inhibition of human ERG expressed in HEK cells assessed as blockade of potassium tail current by standard patch clamp analysis
Rattus norvegicus [4] = test: Effect on sleep-awake pattern in CD IGS rat model of insomnia assessed as latency to REM sleep at 30 mg/kg, po by EEG/EMG study relative to control; assay type: functional
Rattus norvegicus [5] = test: Effect on sleep-awake pattern in CD IGS rat model of insomnia assessed as longest 3 REM bouts at 30 mg/kg, po after 6 hrs by EEG/EMG study relative to control; assay type: functional
Rattus norvegicus [6] = test: Effect on sleep-awake pattern in CD IGS rat model of insomnia assessed as longest 3 NREM bouts at 30 mg/kg, po after 6 hrs by EEG/EMG study relative to control; assay type: functional
Rattus norvegicus [7] = test: Effect on sleep-awake pattern in CD IGS rat model of insomnia assessed as latency to NREM sleep at 30 mg/kg, po by EEG/EMG study relative to control; assay type: functional
Rattus norvegicus [8] = test: Increase in NREM sleep in CD IGS rat model of insomnia at 30 mg/kg, po after 4 hrs by EEG/EMG study relative to control; assay type: functional
Rattus norvegicus [9] = test: Increase in REM sleep in CD IGS rat model of insomnia at 30 mg/kg, po after 4 hrs by EEG/EMG study relative to control; assay type: functional
Rattus norvegicus [10] = test: Effect on sleep-awake pattern in CD IGS rat model of insomnia assessed as longest 3 NREM bouts at 60 mg/kg, po after 6 hrs by EEG/EMG study relative to control; assay type: functional
[11] = Ratio of drug level in rat brain to plasma at 30 mg/kg, po after 4 hrs; assay type: ADME, organism-based; parameters: dose 30 mg/kg, route oral; details: read-out: Ratio
Rattus norvegicus [12] = test: Increase in REM sleep in CD IGS rat model of insomnia at 60 mg/kg, po after 4 hrs by EEG/EMG study relative to control; assay type: functional
[13] = Activity at P-glycoprotein
Rattus norvegicus [14] = test: Effect on sleep-awake pattern in CD IGS rat model of insomnia assessed as latency to NREM sleep at 60 mg/kg, po by EEG/EMG study relative to control; assay type: functional
Rattus norvegicus [15] = test: Effect on sleep-awake pattern in CD IGS rat model of insomnia assessed as longest 3 REM bouts at 60 mg/kg, po after 6 hrs by EEG/EMG study relative to control; assay type: functional
Rattus norvegicus [16] = test: Increase in NREM sleep in CD IGS rat model of insomnia at 60 mg/kg, po after 4 hrs by EEG/EMG study relative to control; assay type: functional
[17] = Drug level in rat plasma at 30 mg/kg, po after 4 hrs; assay type: ADME, organism-based; parameters: dose 30 mg/kg, route oral
[18] = Apparent permeability across human Caco-2 cells; assay type: ADME, cell-based
[19] = Drug level in rat brain at 30 mg/kg, po after 4 hrs; assay type: ADME, organism-based; parameters: dose 30 mg/kg, route oral; details: read-out: Drug uptake
Rattus norvegicus [20] = test: Effect on sleep-awake pattern in CD IGS rat model of insomnia assessed as latency to REM sleep at 60 mg/kg, po by EEG/EMG study relative to control; assay type: functional
Caco-2 = test: Ratio of permeability from apical to basolateral side over basolateral to apical side in human Caco-2 cells

Chain of Cytochrome P450 2D6 (P10635 whole entry): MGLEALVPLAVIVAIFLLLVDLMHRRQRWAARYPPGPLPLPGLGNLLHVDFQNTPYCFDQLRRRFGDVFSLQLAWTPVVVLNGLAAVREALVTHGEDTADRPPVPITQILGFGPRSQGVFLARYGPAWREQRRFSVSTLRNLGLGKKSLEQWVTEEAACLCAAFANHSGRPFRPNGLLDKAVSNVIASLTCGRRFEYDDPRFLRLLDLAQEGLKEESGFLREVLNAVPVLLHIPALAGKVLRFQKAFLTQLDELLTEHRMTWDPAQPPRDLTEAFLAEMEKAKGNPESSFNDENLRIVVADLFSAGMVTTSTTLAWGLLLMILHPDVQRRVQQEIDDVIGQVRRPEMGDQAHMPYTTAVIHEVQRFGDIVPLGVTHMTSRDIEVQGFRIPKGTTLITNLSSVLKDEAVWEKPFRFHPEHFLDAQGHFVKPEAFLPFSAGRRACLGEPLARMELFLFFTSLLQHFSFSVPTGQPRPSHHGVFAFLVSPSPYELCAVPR
T2 sequence (Q12809 whole entry): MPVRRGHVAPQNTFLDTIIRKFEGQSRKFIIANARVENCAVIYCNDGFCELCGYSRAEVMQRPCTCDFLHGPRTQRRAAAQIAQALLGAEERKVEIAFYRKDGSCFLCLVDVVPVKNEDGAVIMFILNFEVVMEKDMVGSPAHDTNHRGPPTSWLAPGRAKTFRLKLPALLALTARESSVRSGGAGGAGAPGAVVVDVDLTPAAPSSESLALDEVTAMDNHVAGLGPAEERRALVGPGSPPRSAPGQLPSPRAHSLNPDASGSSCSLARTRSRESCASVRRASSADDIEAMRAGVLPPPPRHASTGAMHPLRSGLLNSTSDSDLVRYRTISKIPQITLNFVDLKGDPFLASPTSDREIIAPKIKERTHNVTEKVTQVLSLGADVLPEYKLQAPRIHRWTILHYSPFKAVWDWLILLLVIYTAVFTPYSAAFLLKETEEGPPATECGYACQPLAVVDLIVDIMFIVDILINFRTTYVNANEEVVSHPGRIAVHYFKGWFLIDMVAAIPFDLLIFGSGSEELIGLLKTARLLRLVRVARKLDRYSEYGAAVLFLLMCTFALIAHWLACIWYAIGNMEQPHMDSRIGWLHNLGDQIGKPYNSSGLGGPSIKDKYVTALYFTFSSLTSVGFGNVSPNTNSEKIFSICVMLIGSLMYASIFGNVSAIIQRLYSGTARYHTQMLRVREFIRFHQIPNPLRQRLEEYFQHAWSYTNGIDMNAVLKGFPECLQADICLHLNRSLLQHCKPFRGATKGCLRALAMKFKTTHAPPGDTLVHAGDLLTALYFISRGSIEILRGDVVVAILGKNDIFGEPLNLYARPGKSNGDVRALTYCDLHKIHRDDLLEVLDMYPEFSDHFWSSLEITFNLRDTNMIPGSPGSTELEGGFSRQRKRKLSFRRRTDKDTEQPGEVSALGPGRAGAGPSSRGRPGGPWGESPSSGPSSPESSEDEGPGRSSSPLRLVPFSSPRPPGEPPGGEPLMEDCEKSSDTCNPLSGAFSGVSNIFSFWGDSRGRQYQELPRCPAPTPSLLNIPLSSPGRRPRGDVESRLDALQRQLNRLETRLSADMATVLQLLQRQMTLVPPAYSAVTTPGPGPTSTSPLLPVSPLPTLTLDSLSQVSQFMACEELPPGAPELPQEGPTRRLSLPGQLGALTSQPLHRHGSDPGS
Chain of Histamine H1 receptor (P35367 whole entry): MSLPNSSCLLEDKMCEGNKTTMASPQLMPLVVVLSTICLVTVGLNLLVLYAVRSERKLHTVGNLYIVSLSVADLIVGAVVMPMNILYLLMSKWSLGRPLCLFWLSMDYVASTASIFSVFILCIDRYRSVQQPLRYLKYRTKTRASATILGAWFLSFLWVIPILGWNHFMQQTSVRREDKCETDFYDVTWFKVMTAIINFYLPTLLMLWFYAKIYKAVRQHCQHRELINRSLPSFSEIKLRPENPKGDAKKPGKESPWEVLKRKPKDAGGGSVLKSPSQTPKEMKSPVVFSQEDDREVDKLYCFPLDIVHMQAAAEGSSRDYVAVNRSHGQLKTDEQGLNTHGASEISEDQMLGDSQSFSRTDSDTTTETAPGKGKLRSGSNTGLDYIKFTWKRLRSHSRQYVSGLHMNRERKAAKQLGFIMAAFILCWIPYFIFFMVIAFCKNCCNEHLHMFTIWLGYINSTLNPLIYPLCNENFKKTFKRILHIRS
Chain of Cytochrome P450 3A4 (P08684 whole entry): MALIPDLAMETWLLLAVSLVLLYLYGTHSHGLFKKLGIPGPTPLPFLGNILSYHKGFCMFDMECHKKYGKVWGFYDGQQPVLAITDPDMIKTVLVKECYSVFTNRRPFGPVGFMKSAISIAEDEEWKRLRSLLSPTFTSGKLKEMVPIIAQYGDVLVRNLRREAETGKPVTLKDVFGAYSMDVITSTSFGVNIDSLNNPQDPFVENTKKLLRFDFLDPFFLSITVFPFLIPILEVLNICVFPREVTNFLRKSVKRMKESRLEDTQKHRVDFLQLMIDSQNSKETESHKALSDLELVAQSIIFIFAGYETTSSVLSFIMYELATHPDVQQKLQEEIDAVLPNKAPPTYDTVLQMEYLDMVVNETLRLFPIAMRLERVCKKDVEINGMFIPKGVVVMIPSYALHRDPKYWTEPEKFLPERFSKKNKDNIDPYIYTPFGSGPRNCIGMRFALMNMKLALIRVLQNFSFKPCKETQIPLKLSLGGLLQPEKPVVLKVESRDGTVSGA

C[C@@H](c1ccccn1)c1c(CCN2CCCC2)sc2ccccc12
pKi [1]: 5.24 | pIC50 (Cytochrome P450 3A4): < 5.00 | pKi [2]: 5.96 | pKi (Histamine H1 receptor): 8.21 | pIC50 (Cytochrome P450 2D6): 5.57

C[C@@H](c1cscn1)c1c(CCN(C)C)sc2ccccc12
pKi [1]: 5.32 | pIC50 (Cytochrome P450 3A4): < 5.00 | pKi (Histamine H1 receptor; read-out: Ki): 8.34

C[C@@H](c1ccccn1)c1c(CCN2CCC2)sc2ccccc12
pKi [1]: < 5.00 | pIC50 (Cytochrome P450 3A4): < 5.00 | pKi [2]: 5.38 | pIC50 [3]: 6.14 | pKi (Histamine H1 receptor; read-out: Ki): 8.41 | pIC50 (Cytochrome P450 2D6): < 5.00

Cc1ccc(-c2nc3ccc(C)cn3c2CC(=O)N(C)C)cc1 [ZOLPIDEM]
Activity (Rattus norvegicus [4]): 101 min | Activity (Rattus norvegicus [5]): 1.2 min | Activity (Rattus norvegicus [6]): 14.5 min | Activity (Rattus norvegicus [7]): 6 min | Activity (Rattus norvegicus [8]): 47.8% | Activity (Rattus norvegicus [9]): 2.3%

C[C@H](c1cccnc1Cl)c1c(CCN(C)C)sc2ccccc12
pKi [1]: < 5.00 | pIC50 (Cytochrome P450 3A4): < 5.00 | pKi [2]: < 5.30 | pIC50 [3]: 5.82 | pKi (Histamine H1 receptor; read-out: Ki): 8.54 | pIC50 (Cytochrome P450 2D6): 5.02

CC(c1ccccn1)c1c(CCN(C)C)sc2ccccc12 (racemic)
pKi [1]: 5.85 | pIC50 (Cytochrome P450 3A4): < 5.00 | pKi [2]: < 5.30 | pKi (Histamine H1 receptor; read-out: Ki): 7.92 | pIC50 (Cytochrome P450 2D6): 5.16

C[C@@H](c1cncs1)c1c(CCN(C)C)sc2ccccc12
pKi [1]: < 5.00 | pIC50 (Cytochrome P450 3A4): < 5.00 | pKi [2]: < 5.30 | pKi (Histamine H1 receptor; read-out: Ki): 8.28

C[C@H](c1ccccn1)c1c(CCN(C)C)sc2ccccc12
pKi [1]: 6.00 | pIC50 (Cytochrome P450 3A4): < 5.00 | pKi [2]: < 5.30 | pKi (Histamine H1 receptor): 6.59 | pIC50 (Cytochrome P450 2D6): 5.48

Cc1ccc(C(C)c2c(CCN(C)C)sc3ccccc23)cn1 (racemic)
pKi [1]: < 5.00 | pIC50 (Cytochrome P450 3A4): < 5.00 | pKi [2]: < 5.30 | pKi (Histamine H1 receptor; read-out: Ki): 7.16

Cc1ccnc(C(C)c2c(CCN(C)C)sc3ccccc23)c1 (racemic)
pKi [1]: < 5.00 | pIC50 (Cytochrome P450 3A4): < 5.00 | pKi [2]: < 5.30 | pKi (Histamine H1 receptor; read-out: Ki): 6.41

Cc1ncccc1[C@@H](C)c1c(CCN(C)C)sc2ccccc12
pKi [1]: < 5.00 | pIC50 (Cytochrome P450 3A4): < 5.00 | pKi [2]: < 5.30 | pKi (Histamine H1 receptor; read-out: Ki): 7.77 | pIC50 (Cytochrome P450 2D6): < 5.00

COc1ncccc1[C@@H](C)c1c(CCN(C)C)sc2ccccc12
Activity (Rattus norvegicus [4]): 56 min | Activity (Rattus norvegicus [10]): 6.7 min | Kp at 4 h [11]: 9 | Activity (Rattus norvegicus [12]): 6.8% | Activity [13]: inactive | pKi [1]: < 5.00 | Activity (Rattus norvegicus [14]): 49 min | pIC50 (Cytochrome P450 3A4): < 5.00 | Activity (Rattus norvegicus [5]): 2.3 min | Activity (Rattus norvegicus [15]): 2.3 min | Activity (Rattus norvegicus [6]): 7 min | pKi [2]: < 5.30 | Activity (Rattus norvegicus [16]): 28.3% | concentration at 4 h [17]: 37.5 ng/mL | Activity (Rattus norvegicus [7]): 37 min | Papp [18]: > 21.7 ×10⁻⁶ cm/s | concentration at 4 h [19]: 347 ng/g | pIC50 [3]: 5.74 | pKi (Histamine H1 receptor; read-out: Ki): 8.54 | Activity (Rattus norvegicus [20]): 72 min | Activity (Rattus norvegicus [8]): 33.1% | pIC50 (Cytochrome P450 2D6): 5.02 | Activity (Rattus norvegicus [9]): 7% | Ratio (Caco-2): > 0.7

CC(c1ccncc1)c1c(CCN(C)C)sc2ccccc12 (racemic)
pKi [1]: 5.25 | pIC50 (Cytochrome P450 3A4): 5.55 | pKi [2]: 5.74 | pKi (Histamine H1 receptor): 7.64 | pIC50 (Cytochrome P450 2D6): 6.07
